# Assay results: ChEMBL document CHEMBL3507680, “University of Dundee, Gates Library screen for HepG2 cell viability”
# Assay: Human HepG2 cell viability assay in 384 well format
# Type: toxicity, cell-based
# Set-up: dose 125 nL, time 70.5 hour; cytotoxicity at 70.5 h: concentration not given beside the values
# Settings: HepG2 cells, read-out: Inhibition
row,SMILES,cytotoxicity at 70.5 h [%]
1,N#Cc1nccnc1N1CCC(OCCCc2ccccc2)C1 (stereo not given),-6.29
2,CC(O)(CN1CCN(CCO)CC1)c1cccc(C(F)(F)F)c1 (stereo not given),14.6
3,Cc1nn(C)cc1C(=O)N1CCCC(n2cncn2)C1 (stereo not given),-9.27
4,COCCN(Cc1nc2c(cnn2C)c(=O)[nH]1)Cc1ccco1,-7.8
5,Cc1ccc(CN2CCc3c(CN(C)C)n[nH]c3C2)s1,-0.649
6,CC(C)Cc1cc(C(=O)N2CCC(C(=O)N3CCOCC3)CC2)on1,-7.8
7,Cc1nnc(NCc2ccc(Br)cc2)o1,-4.41
8,CCC(=O)N(CC(N)=O)Cc1cccc(Oc2ccccc2)c1,0.0156
9,Cc1cc(-c2ccc(C(=O)O)cc2)nc(C2CCCN(C(C)C)C2)n1 (stereo not given),-9.15
10,Cc1nn(C)c(C)c1-c1nccnc1CC1CCNCC1,-1.07
11,CC(C)(C)N1CCCN(C(=O)c2csc(S(N)(=O)=O)c2)CC1,15.7
12,COc1ccc2nc(C[C@@H]3C[C@@H](C(C)C)[C@H](CN(C)C)C=C3C)[nH]c2n1,-3.85
13,CC(NC(=O)NCCn1ccnc1)c1ccc2c(c1)NC(=O)CO2 (stereo not given),-0.375
14,O=C(Cc1cccs1)N1CCC2(CCCN(CC3CCOCC3)C2)C1 (stereo not given),-6.08
15,CC(C)c1nc(/C=C/c2cnn(-c3ccccc3)c2)ncc1C(=O)O,-1.23
16,O=C1CO[C@H]2CN(S(=O)(=O)c3ccccc3)C[C@H]2N1c1ccccc1,-8.37
17,NC(=O)CN1CCC(C(=O)NCC(O)c2cccc(F)c2)CC1 (stereo not given),-10.5
18,CCCn1ncc(CN2CCCC(C(=O)c3ccc(SC)cc3)C2)c1C (stereo not given),-9.31
19,CNC(=O)C(C)(C)N(C)C(=O)c1cc(COc2ccccc2OC)[nH]n1,-5.11
20,Cc1nc(-c2ccc(S(=O)(=O)N3CCC=C(F)C3)cc2)co1,-9.72
21,CS(=O)(=O)N1CCN(CC(=O)Nc2cccc(Cl)c2)CC1,5.96
22,COCCN1CC2(CCCN(C(=O)NCc3ccccc3)C2)CCC1=O (stereo not given),0.704
23,CN1CCC(N(Cc2ccccc2F)C(=O)NCc2ccncc2)CC1,30.5
24,CCn1nc(C)c2nc(C(C)C)nc(NCCCn3cccn3)c21,-4.58
25,COCCOc1ncccc1C(=O)N1CCCC1Cn1cc(C)cn1 (stereo not given),-12
26,COc1ccc(CN2CCCC2)cc1Oc1cccc(C#N)n1,-2.11
27,Cn1cncc1-c1nnc([C@H]2CCN(CC(C)(C)C)C2)o1,14
28,CCc1nc(CN(C)C2CCN(Cc3ccc(Cl)s3)C2)no1 (stereo not given),8.41

row,SMILES,cytotoxicity at 70.5 h [%]
1,CC(C)CNC(=O)C(C)N1CCN(C2CCN(C(C)C)CC2)CC1 (stereo not given),-12.6
2,Cc1ccc(N2CCN(C)c3ncccc3C2)nn1,-2.98
3,CCc1cnc(CN(C)C(C)C(=O)N2CCc3ccccc3C2)s1 (stereo not given),0.736
4,COc1ccc2c(c1)C(C(=O)NCCN1CCOC1=O)CC(=O)N2 (stereo not given),-4.48
5,Cc1cnccc1-c1cnn(CCNC(=O)c2ccccn2)c1C1CC1,27.5
6,COc1cccc(CN2C[C@H]3CCNCC[C@H]3S2(=O)=O)c1,18.8
7,CCc1nc(CNc2cc(C)nc(-c3cccnc3)n2)cs1,24.1
8,OC(c1ccccn1)C1CCN(Cc2cc3n(n2)CCCNC3)CC1 (stereo not given),-21
9,NC(=O)C1CCN(C(=O)Cn2ccc3cc(Br)ccc32)CC1,-9.96
10,CSc1ccccc1C(=O)N(C)Cc1nncn1C(C)C,-0.541
11,CC(C)c1nnc2n1CCN(C(=O)c1cccc(C(F)(F)F)c1)C2,6.51
12,COCCCNC(=O)Cc1nc(-c2ccncc2)n[nH]1,-1.85
13,Cc1ccc(N2CCCN(C(=O)C3(C#N)CCCCC3)CC2)nn1,-0.352
14,O=C(Nc1ccc(CC(=O)N2CCSCC2)cc1)NC1CCCC1,-4.2
15,O=C1O[C@@H]2CN(Cc3ccccn3)C[C@@H]2N1CCCc1ccc(F)cc1,6.23
16,Cc1cc2ccccc2n1CC(=O)Nc1ccnn1CC1CCOC1 (stereo not given),-14.7
17,O=C(CN1CCCNC1=O)Nc1ccccc1SC(F)(F)F,21.5
18,Cc1nccn1C1CCCN(C(=O)c2cc(O)nc3ccccc23)C1 (stereo not given),12.3
19,Oc1cc(CN2CCC(O)(Cn3ccnc3)CC2)nc2c(Cl)cccc12,-9.08
20,Cc1nc(N)nc(C)c1CC(=O)N1CCCCC1c1cccc(F)c1 (stereo not given),-8.87
21,CCCS(=O)(=O)N1CCC(NC(=O)c2ccc(Cl)s2)CC1,-11.6
22,Cc1cnn(CC2CN(CC(=O)NCc3ccccn3)CCO2)c1 (stereo not given),14.8
23,CC(CN1CCOCC1)NC(=O)N1CCN(S(C)(=O)=O)CC1 (stereo not given),27.9
24,CCc1noc(CN(C)C(=O)c2ccccc2-c2ncn[nH]2)n1,-2.67
25,CCc1ccc(C(NC(=O)CN(C)S(C)(=O)=O)C(C)(C)C)o1 (stereo not given),-7.8
26,COc1c(C(=O)N2CCC(COCc3ccccc3)C2)c(C)nn1C (stereo not given),-0.0423
27,Cc1ccccc1-n1nccc1NC(=O)CCOC(C)C,11.4
